# Tests used:
# [1] = target: T1, Tel fusion of EphA3 (Homo sapiens, UniProt P29320); assay: Tyrosine kinase transformed Ba/F3 cellular assay; type: cell-based; details: Ba/F3 cells transformed with Tel fusion of EphA3
# T1 sequence (P29320 621-882): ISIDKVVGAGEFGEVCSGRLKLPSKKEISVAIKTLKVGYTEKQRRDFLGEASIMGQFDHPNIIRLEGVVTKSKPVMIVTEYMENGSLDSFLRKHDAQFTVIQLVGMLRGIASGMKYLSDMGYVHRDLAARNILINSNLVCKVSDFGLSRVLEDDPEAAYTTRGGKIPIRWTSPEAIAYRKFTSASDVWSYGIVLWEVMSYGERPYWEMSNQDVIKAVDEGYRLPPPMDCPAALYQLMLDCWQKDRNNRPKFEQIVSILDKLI
# T1 sequence (P41212 40-124 partner): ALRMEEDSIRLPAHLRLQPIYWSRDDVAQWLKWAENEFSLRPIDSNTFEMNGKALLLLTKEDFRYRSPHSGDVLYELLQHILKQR
# [2] = target: Tel-Src (Homo sapiens, UniProt P12931+P41212); assay: Tyrosine kinase transformed Ba/F3 cellular assay; type: cell-based; details: for cellular activity against Src-family kinases (Tel-Src): Ba/F3
# Chain of Tel-Src (P12931 270-523 limits assumed, one chain of several): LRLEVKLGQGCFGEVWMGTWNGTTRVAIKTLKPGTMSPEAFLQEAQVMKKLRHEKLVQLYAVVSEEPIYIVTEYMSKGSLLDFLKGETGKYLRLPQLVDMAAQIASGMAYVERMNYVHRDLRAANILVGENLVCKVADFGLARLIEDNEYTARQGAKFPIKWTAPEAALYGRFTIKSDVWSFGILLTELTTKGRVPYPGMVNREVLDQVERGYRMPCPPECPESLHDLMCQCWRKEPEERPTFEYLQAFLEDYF
# [3] = target: Tel-Lyn (Homo sapiens, UniProt P07948+P41212); assay: Tyrosine kinase transformed Ba/F3 cellular assay; type: cell-based; details: for cellular activity against Src-family kinases (Tel-Lyn): Ba/F3
# Chain of Tel-Lyn (P07948 247-501 limits assumed, one chain of several): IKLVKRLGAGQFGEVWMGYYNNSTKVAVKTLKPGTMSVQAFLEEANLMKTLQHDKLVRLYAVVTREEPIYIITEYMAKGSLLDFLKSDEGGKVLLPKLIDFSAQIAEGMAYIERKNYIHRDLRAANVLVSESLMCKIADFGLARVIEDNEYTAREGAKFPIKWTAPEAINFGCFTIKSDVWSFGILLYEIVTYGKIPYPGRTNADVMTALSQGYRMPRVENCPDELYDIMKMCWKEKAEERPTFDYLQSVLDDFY
# [4] = target: Bcr-Abl (Homo sapiens, UniProt P00519+P11274); assay: Tyrosine kinase transformed Ba/F3 cellular assay; type: cell-based; details: for cross reactivity with Bcr-Abl: Ba/F3 panel screen
# Chain of Bcr-Abl (P00519 28-1130 limits assumed, one chain of several): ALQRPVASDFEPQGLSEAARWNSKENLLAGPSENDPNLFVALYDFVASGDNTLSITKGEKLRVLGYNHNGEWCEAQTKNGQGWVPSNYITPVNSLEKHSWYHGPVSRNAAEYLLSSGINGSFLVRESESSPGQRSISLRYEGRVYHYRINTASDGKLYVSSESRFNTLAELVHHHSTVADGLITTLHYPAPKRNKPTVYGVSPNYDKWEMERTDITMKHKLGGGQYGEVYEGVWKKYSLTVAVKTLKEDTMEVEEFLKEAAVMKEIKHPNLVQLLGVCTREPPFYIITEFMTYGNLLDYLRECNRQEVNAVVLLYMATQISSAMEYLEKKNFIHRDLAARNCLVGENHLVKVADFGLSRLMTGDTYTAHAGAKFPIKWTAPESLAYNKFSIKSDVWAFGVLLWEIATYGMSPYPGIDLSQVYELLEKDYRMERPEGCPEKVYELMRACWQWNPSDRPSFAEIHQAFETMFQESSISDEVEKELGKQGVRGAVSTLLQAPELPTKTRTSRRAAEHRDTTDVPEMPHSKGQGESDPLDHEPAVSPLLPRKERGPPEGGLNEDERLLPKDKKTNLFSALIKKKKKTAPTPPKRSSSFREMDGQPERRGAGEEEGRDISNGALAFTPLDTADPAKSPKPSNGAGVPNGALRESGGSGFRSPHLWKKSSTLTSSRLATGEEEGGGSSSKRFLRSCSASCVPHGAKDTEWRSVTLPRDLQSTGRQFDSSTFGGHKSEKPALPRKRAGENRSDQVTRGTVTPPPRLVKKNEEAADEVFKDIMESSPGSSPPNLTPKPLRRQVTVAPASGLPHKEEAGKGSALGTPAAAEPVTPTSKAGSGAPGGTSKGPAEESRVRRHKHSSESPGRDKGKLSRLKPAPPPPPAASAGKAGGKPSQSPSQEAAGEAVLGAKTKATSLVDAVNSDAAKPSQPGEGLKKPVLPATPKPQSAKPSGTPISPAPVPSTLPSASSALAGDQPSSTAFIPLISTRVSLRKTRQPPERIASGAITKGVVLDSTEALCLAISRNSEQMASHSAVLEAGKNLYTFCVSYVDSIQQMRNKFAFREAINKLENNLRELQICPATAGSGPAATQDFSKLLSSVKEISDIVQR
# [5] = tested on: b-raf, CSF1R, DDR1, DDR2, EphA2, EphA5, EphA8, EphB1, EphB2, EphB3, Frk, Kit, Lck, p38α, p38β, PDGFRα, PDGFRβ, Raf1; assay: Ambit KinomeScan panel of 402 kinases, single concentration; type: binding; details: single concentration of 10 µM
# [6] = target: T2, EphA6 (Homo sapiens, UniProt Q9UF33); assay: KinomeScan dose-response dissociation constant; details: KinomeScan binding
# T2 sequence (Q9UF33 23-1036): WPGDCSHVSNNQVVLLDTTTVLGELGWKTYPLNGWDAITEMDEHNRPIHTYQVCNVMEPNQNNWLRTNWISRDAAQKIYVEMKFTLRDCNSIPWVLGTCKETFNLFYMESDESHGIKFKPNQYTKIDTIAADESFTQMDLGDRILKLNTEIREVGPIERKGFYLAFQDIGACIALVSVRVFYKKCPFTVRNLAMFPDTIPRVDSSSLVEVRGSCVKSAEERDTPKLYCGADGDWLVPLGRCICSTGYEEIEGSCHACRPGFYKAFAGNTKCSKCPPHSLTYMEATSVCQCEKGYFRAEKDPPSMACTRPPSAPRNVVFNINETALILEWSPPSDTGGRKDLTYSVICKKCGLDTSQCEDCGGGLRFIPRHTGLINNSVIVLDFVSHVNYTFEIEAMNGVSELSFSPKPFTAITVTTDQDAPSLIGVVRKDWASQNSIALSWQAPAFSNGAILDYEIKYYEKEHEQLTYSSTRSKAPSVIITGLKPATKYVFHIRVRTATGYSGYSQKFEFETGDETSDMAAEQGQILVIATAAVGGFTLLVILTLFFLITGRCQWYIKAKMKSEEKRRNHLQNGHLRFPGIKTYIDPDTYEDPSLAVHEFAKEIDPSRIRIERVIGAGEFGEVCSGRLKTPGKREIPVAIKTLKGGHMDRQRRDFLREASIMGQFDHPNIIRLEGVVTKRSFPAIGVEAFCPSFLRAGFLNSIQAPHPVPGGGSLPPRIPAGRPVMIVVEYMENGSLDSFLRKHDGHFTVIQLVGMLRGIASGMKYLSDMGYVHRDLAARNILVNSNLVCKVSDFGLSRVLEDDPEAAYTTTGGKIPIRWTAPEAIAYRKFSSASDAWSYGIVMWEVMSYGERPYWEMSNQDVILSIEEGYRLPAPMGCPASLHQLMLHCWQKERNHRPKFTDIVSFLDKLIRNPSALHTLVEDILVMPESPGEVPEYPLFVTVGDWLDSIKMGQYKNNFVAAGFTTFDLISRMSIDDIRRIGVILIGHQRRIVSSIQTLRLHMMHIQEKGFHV
# [7] = target: EphA7 (Homo sapiens, UniProt Q15375); assay: KinomeScan dose-response dissociation constant; type: binding; details: for inhibition of EphA7: KinomeScan binding
# Chain of EphA7 (Q15375 28-998, species assumed): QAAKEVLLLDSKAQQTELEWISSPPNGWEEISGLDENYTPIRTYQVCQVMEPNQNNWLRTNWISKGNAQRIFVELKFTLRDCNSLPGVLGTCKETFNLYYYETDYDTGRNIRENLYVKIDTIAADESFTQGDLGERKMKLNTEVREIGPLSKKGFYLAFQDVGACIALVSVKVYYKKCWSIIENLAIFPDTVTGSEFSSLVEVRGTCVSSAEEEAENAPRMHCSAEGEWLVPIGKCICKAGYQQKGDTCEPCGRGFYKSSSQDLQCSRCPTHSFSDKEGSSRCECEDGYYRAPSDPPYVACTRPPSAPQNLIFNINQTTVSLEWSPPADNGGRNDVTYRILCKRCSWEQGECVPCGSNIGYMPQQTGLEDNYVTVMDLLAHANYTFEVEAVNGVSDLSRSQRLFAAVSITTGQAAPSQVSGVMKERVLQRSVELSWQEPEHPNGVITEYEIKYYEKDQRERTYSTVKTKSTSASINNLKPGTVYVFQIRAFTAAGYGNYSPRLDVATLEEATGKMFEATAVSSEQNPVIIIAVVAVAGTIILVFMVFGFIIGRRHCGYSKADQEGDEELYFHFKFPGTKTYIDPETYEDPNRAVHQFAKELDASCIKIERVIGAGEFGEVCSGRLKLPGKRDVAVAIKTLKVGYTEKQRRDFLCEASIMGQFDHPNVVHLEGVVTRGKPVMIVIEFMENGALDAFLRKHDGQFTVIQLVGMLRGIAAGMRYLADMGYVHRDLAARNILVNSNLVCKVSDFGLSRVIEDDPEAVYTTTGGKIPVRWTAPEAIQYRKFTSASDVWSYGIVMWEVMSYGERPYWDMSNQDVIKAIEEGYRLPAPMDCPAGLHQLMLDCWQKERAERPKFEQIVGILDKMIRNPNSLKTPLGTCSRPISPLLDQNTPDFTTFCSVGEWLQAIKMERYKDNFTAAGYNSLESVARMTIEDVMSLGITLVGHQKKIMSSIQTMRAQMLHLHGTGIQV
# [8] = target: T3, EphB1 (Homo sapiens, UniProt P54762); assay: KinomeScan dose-response dissociation constant; details: KinomeScan binding
# T3 sequence (P54762 18-984): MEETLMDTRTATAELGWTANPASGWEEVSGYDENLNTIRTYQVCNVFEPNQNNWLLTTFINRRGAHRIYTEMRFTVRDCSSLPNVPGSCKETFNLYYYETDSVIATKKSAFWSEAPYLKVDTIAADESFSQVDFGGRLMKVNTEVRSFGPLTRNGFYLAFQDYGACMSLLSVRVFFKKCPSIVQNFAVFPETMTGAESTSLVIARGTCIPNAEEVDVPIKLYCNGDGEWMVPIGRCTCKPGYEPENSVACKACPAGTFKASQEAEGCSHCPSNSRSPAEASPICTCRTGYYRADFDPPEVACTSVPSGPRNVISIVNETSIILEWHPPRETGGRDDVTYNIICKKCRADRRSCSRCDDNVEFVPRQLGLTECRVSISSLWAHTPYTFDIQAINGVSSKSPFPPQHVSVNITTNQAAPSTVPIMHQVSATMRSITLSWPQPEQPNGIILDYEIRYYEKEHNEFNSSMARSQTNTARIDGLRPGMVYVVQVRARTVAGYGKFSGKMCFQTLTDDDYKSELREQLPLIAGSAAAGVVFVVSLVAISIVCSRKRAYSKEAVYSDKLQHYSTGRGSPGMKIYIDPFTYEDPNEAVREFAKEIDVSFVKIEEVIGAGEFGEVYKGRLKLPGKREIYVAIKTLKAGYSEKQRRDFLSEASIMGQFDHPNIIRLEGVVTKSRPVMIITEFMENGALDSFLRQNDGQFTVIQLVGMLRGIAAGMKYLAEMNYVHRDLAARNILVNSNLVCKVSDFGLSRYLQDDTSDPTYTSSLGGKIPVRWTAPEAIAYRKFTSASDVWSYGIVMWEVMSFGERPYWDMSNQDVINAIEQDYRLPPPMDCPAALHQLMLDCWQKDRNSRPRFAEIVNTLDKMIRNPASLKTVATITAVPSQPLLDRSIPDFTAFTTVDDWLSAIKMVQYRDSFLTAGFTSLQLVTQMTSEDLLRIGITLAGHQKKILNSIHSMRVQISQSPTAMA
# [9] = tested on: Eph-family kinases; assay: Invitrogen SelectScreen biochemical kinase activity assay; details: [Km,app] ATP, starting concentration 10 µM
# [10] = target: b-raf (Homo sapiens, UniProt P15056); assay: Cellular activity against b-raf; type: cell-based
# Chain of b-raf (P15056 whole entry, species assumed): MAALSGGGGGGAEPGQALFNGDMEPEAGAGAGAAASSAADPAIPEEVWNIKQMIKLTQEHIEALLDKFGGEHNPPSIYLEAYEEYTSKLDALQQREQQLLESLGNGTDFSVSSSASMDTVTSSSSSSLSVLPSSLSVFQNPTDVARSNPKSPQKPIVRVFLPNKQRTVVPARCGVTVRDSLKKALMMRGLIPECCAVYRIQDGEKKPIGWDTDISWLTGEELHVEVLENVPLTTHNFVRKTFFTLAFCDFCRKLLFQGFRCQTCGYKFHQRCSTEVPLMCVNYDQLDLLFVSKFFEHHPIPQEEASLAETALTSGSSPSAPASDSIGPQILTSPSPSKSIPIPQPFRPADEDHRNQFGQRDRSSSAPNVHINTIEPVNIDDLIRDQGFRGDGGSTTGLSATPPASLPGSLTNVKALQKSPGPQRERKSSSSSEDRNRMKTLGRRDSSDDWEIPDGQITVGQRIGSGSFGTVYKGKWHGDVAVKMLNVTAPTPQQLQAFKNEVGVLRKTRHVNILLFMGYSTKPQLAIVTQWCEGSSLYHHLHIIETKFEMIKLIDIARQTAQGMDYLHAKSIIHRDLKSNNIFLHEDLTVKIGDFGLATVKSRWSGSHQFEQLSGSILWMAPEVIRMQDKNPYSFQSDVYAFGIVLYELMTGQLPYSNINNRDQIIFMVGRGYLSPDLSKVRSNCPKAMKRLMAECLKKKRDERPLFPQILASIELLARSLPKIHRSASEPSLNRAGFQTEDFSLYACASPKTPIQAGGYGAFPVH
# [11] = target: FGFR2 (Homo sapiens, UniProt P21802); assay: Tyrosine kinase transformed Ba/F3 cellular assay; type: cell-based; details: Ba/F3 panel screen, printed FGFR2/3/4
# Chain of FGFR2 (P21802 481-770 limits assumed, species assumed): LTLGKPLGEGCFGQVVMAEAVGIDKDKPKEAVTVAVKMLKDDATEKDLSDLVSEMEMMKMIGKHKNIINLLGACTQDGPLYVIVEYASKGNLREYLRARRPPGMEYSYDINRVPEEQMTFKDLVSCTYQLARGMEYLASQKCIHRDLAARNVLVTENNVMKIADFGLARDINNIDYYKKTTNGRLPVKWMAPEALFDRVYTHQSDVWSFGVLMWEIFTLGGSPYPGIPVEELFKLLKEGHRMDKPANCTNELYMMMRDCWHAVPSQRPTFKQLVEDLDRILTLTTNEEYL
# [12] = target: FGFR3 (Homo sapiens, UniProt P22607); assay: Tyrosine kinase transformed Ba/F3 cellular assay; type: cell-based; details: Ba/F3 panel screen, printed FGFR2/3/4
# Chain of FGFR3 (P22607 472-761 limits assumed): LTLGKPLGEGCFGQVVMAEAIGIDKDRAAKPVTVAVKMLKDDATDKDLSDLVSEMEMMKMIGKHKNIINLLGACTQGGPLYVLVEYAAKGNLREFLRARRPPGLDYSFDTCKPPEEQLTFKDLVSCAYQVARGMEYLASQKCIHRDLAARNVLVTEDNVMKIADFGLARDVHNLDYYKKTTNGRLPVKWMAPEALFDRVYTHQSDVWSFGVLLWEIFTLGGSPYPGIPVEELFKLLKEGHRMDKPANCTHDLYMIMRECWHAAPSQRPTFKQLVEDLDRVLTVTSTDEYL
# [13] = target: FGFR4 (Homo sapiens, UniProt P22455); assay: Tyrosine kinase transformed Ba/F3 cellular assay; type: cell-based; details: Ba/F3 panel screen, printed FGFR2/3/4
# Chain of FGFR4 (P22455 467-755 limits assumed): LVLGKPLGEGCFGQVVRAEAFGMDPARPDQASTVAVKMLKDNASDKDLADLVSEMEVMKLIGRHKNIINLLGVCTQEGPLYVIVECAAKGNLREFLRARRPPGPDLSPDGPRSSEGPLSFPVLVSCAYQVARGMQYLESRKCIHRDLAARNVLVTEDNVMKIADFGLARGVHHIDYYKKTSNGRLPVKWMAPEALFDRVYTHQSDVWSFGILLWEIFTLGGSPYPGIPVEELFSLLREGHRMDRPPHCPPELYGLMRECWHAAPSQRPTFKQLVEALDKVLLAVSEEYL
# [14] = target: T4, EphB2 (Homo sapiens, UniProt P29323); details: proteomic and cellular screening approaches ref 10, 9; cited from earlier work
# T4 sequence (P29323 19-1055): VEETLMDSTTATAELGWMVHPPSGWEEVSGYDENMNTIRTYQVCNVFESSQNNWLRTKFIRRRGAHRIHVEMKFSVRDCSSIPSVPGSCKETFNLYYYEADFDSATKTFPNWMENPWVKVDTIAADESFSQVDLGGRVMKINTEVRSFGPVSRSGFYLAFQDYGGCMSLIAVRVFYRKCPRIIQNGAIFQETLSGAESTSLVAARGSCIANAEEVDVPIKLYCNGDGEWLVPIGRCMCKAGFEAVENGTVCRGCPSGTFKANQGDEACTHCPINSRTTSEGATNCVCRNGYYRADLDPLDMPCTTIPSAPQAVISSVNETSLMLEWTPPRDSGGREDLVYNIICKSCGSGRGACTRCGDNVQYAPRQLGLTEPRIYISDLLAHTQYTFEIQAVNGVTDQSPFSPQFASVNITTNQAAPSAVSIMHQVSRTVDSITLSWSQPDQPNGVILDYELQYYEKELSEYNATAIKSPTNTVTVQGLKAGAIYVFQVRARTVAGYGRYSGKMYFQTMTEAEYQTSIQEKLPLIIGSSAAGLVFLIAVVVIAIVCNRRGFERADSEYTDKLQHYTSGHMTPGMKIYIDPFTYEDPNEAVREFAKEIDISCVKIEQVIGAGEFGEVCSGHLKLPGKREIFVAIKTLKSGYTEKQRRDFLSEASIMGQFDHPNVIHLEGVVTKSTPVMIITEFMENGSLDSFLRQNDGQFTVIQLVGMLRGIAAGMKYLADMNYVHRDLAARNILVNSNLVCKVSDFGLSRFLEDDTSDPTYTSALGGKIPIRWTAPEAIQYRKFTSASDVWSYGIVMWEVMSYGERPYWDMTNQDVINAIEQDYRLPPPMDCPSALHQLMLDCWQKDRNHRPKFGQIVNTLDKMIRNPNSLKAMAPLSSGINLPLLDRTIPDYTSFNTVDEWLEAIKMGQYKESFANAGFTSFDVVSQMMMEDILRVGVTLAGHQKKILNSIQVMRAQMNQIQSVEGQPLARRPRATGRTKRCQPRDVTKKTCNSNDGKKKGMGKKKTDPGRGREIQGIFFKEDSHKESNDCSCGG
# [15] = tested on: Bcr-Abl threonine to isoleucine gatekeeper substitution; details: threonine to isoleucine substitution of the gatekeeper position ref 21; cited from earlier work
smiles,measurement,setting,value
CCN1CCN(Cc2ccc(NC(=O)c3ccc(C)c(NC(=O)c4cncc(-c5cccs5)c4)c3)cc2C(F)(F)F)CC1 [Compound 7],EC50,[1],< 500 nM
same,EC50,[2],< 500 nM
same,EC50,[3]; Ba/F3 cells transformed with Tel fusion of Lyn,< 500 nM
same,EC50,[4]; Ba/F3 cells transformed with Bcr-Abl,< 500 nM
same,cross reactivity with Bcr-Abl,[4],cross reactivity
same,selectivity profile (binding to kinases),[5],inhibited all these kinases and many more
Cc1ccc(C(=O)Nc2cccc(C(F)(F)F)c2)cc1Nc1cncc(C(N)=O)c1 [Compound 9],cellular activity against Src-family kinases (Tel-Src),[2],did not exhibit significant cellular activity
same,cellular activity against Src-family kinases (Tel-Lyn),[3],did not exhibit significant cellular activity
same,selectivity profile (binding to kinases),[5],binding to a common set of kinases
same,inhibition of EphA6,[6],not inhibited
same,affinity for EphA7,[7],relatively low affinity
same,inhibition of EphA7,[7],not inhibited
same,inhibition of EphB1,[8],not inhibited
same,selectivity and potency (IC50),[9],good selectivity for Eph-family kinases with moderate potency
same,cellular activity against b-raf,[10],did not exhibit significant cellular activity
Cc1ccc(C(=O)Nc2cccc(C(F)(F)F)c2)cc1Nc1[nH]cnc2ncnc1-2 [Compound 10],cross reactivity with FGFR2,[11],cross reactivity
same,cross reactivity with FGFR3,[12],cross reactivity
same,cross reactivity with FGFR4,[13],cross reactivity
Cc1cn(-c2cc(NC(=O)c3ccc(C)c(NC(=O)c4ccno4)c3)cc(C(F)(F)F)c2)cn1 [Compound 6],cellular activity against Src-family kinases (Tel-Src),[2],did not exhibit significant cellular activity
same,cellular activity against Src-family kinases (Tel-Lyn),[3],did not exhibit significant cellular activity
same,selectivity profile (binding to kinases),[5],binding to a common set of kinases
same,inhibition of EphA6,[6],not inhibited
same,inhibition of EphA7,[7],not inhibited
same,inhibition of EphB1,[8],not inhibited
same,cellular activity against b-raf,[10],did not exhibit significant cellular activity
Cc1cn(-c2cc(NC(=O)c3ccc(C)c(Nc4nccc(-c5cccnc5)n4)c3)cc(C(F)(F)F)c2)cn1 [nilotinib],EphB2 as target,[14],identified as a target
same,inhibition of Bcr-Abl gatekeeper mutation,[15],not inhibited
Cc1ccc(C(=O)Nc2cccc(C(F)(F)F)c2)cc1Nc1ccc2occc(=O)c2c1 [Compound 8],cross reactivity with Bcr-Abl,[4],cross reactivity
same,selectivity profile (binding to kinases),[5],binding to a common set of kinases
same,inhibition of EphA6,[6],not inhibited
same,inhibition of EphA7,[7],not inhibited
same,inhibition of EphB1,[8],not inhibited
Cc1nc(Nc2ncc(C(=O)Nc3c(C)cccc3Cl)s2)cc(N2CCN(CCO)CC2)n1 [dasatinib],EphB2 as target,[14],identified as a target

# Reference: paper PMC2730633 (Bioorganic & medicinal chemistry letters, 2009)
